# Values joined by “and” are separate entries in the source; they are usually repeats but may differ in a detail not shown here. Equal values may be shown once.
# Experiments:
# PC3-mice = experiment: Biodistribution in PC3-mice incl. blocking; type: in vivo, mouse; settings: PC3-mice
# Description: Male athymic Balb/C nude mice (6 weeks/20–25 g) were implanted with PC3 cells (3.5 × 10^6/100 µL PBS) into their right shoulder to develop tumors. The animals were used for biodistribution and PET/SPECT/CT imaging studies, once tumors reached 250–300 mm^3.
# All mice were euthanized with intraperitoneal injection of pentobarbital (150 mg/kg), and selected organs were dissected, weighed, and measured for radioactivity using a gamma-counter. Results are expressed as % injected activity per gram tissue (% I.A./g), presented as mean ± SD (n = 3–4).
# [1] = Blood clearance kinetics in healthy mice; type: in vivo, mouse; settings: i.v., Two-Phase Decay Model
# Description: Blood samples were collected from the facial vein at 1, 3, 5, 7, 10, 15, 20, 30, 45, 60, 240, and 1440 min p.i., weighed, and measured for radioactivity using a γ-counter. Results were expressed as % I.A./g of blood and plotted over time. The initial and terminal half-lives were determined using Two-Phase Decay Model. The biological half-lives of selected organs were calculated from the biodistribution data using One-Phase Decay Model (GraphPad Prism 8).
# [2] = Blocking 4h (20 nmol unlabeled precursor)
smiles,measurement,setting,value
N#C[C@@H]1CC(F)(F)CN1C(=O)CNC(=O)c1ccnc2ccc(OCCCCNC(=O)CC[C@H](NC(=O)CCC(C(=O)O)N3CCN(CC(=O)[O-])CCN(CC(=O)[O-])CCN(CC(=O)[O-])CC3)C(=O)NCCCCOc3ccc4nccc(C(=O)NCC(=O)N5CC(F)(F)C[C@H]5C#N)c4c3)cc12.[177Lu+3] (stereo partly shown) [[^177Lu]Lu-DOTAGA.Glu.(FAPI)2],Uptake in Adrenal,PC3-mice; 4 h p.i.,3±0.2 %I.A./g
same,Uptake in Blood,PC3-mice; 4 h p.i.,2.1±0.1 %I.A./g
same,Uptake in Bone,PC3-mice; 4 h p.i.,4±0.3 %I.A./g
same,Uptake in Gallbladder,PC3-mice; 4 h p.i.,2.7±1.6 %I.A./g
same,Uptake in Heart,PC3-mice; 4 h p.i.,0.9±0.1 %I.A./g
same,Uptake in Intestine,PC3-mice; 4 h p.i.,0.8±0.3 %I.A./g
same,Uptake in Kidney,PC3-mice; 4 h p.i.,2.6±0.4 %I.A./g
same,Uptake in Liver,PC3-mice; 4 h p.i.,1.7±0.2 %I.A./g
same,Uptake in Lung,PC3-mice; 4 h p.i.,1.1±0.1 %I.A./g
same,Uptake in Muscle,PC3-mice; 4 h p.i.,1.4±0.3 %I.A./g
same,Uptake in Pancreas,PC3-mice; 4 h p.i.,1.9±0.1 %I.A./g
same,Uptake in Salivary glands,PC3-mice; 4 h p.i.,6.2±1.2 %I.A./g
same,Uptake in Spleen,PC3-mice; 4 h p.i.,0.9±0.1 %I.A./g
same,Uptake in Stomach,PC3-mice; 4 h p.i.,0.8±0.1 %I.A./g
same,Uptake in Tumor,PC3-mice; 4 h p.i.,16.2±2.5 %I.A./g
same,Uptake in Adrenal,PC3-mice; 24 h p.i.,1.9±0.2 %I.A./g
same,Uptake in Blood,PC3-mice; 24 h p.i.,0.9±0.2 %I.A./g
same,Uptake in Bone,PC3-mice; 24 h p.i.,2.5±0.1 %I.A./g
same,Uptake in Gallbladder,PC3-mice; 24 h p.i.,0.4±0.1 %I.A./g
same,Uptake in Heart,PC3-mice; 24 h p.i.,0.6±0.1 %I.A./g
same,Uptake in Intestine,PC3-mice; 24 h p.i.,0.4±0.1 %I.A./g
same,Uptake in Kidney,PC3-mice; 24 h p.i.,1.3±0.2 %I.A./g
same,Uptake in Liver,PC3-mice; 24 h p.i.,2.1±0.2 %I.A./g
same,Uptake in Lung,PC3-mice; 24 h p.i.,0.6±0.2 %I.A./g
same,Uptake in Muscle,PC3-mice; 24 h p.i.,0.8±0.1 %I.A./g
same,Uptake in Pancreas,PC3-mice; 24 h p.i.,0.9±0.7 %I.A./g
same,Uptake in Salivary glands,PC3-mice; 24 h p.i.,2.9±0.5 %I.A./g
same,Uptake in Spleen,PC3-mice; 24 h p.i.,0.7±0.2 %I.A./g
same,Uptake in Stomach,PC3-mice; 24 h p.i.,0.4±0.1 %I.A./g
same,Uptake in Tumor,PC3-mice; 24 h p.i.,7.3±0.6 %I.A./g
same,Uptake in Adrenal,PC3-mice; 48 h p.i.,1.3±0.3 %I.A./g
same,Uptake in Blood,PC3-mice; 48 h p.i.,0.2±0.03 %I.A./g
same,Uptake in Bone,PC3-mice; 48 h p.i.,1.3±0.1 %I.A./g
same,Uptake in Gallbladder,PC3-mice; 48 h p.i.,0.1±0.1 %I.A./g
same,Uptake in Heart,PC3-mice; 48 h p.i.,0.4±0.04 %I.A./g
same,Uptake in Intestine,PC3-mice; 48 h p.i.,0.2±0.01 %I.A./g
same,Uptake in Kidney,PC3-mice; 48 h p.i.,1±0.2 %I.A./g
same,Uptake in Liver,PC3-mice; 48 h p.i.,1.9±0.5 %I.A./g
same,Uptake in Lung,PC3-mice; 48 h p.i.,0.3±0.1 %I.A./g
same,Uptake in Muscle,PC3-mice; 48 h p.i.,0.5±0.1 %I.A./g
same,Uptake in Pancreas,PC3-mice; 48 h p.i.,0.6±0.1 %I.A./g
same,Uptake in Salivary glands,PC3-mice; 48 h p.i.,2.2±0.3 %I.A./g
same,Uptake in Spleen,PC3-mice; 48 h p.i.,0.5±0.04 %I.A./g
same,Uptake in Stomach,PC3-mice; 48 h p.i.,0.3±0.03 %I.A./g
same,Uptake in Tumor,PC3-mice; 48 h p.i.,5.1 ± 0.1 %I.A./g
same,Uptake in Adrenal,PC3-mice; 72 h p.i.,0.9±0.02 %I.A./g
same,Uptake in Blood,PC3-mice; 72 h p.i.,0.1±0.03 %I.A./g
same,Uptake in Bone,PC3-mice; 72 h p.i.,0.9±0.2 %I.A./g
same,Uptake in Gallbladder,PC3-mice; 72 h p.i.,0.1±0.1 %I.A./g
same,Uptake in Heart,PC3-mice; 72 h p.i.,0.3±0.1 %I.A./g
same,Uptake in Intestine,PC3-mice; 72 h p.i.,0.1±0.02 %I.A./g
same,Uptake in Kidney,PC3-mice; 72 h p.i.,0.6±0.1 %I.A./g
same,Uptake in Liver,PC3-mice; 72 h p.i.,1.4±0.4 %I.A./g
same,Uptake in Lung,PC3-mice; 72 h p.i.,0.1±0.02 %I.A./g
same,Uptake in Muscle,PC3-mice; 72 h p.i.,0.2±0.02 %I.A./g
same,Uptake in Pancreas,PC3-mice; 72 h p.i.,0.4±0.03 %I.A./g
same,Uptake in Salivary glands,PC3-mice; 72 h p.i.,0.7±0.04 %I.A./g
same,Uptake in Spleen,PC3-mice; 72 h p.i.,0.3±0.1 %I.A./g
same,Uptake in Stomach,PC3-mice; 72 h p.i.,0.1±0.02 %I.A./g
same,Uptake in Tumor,PC3-mice; 72 h p.i.,3.2±0.3 %I.A./g
same,Uptake in Adrenal,PC3-mice; 96 h p.i.,0.5±0.01 %I.A./g
same,Uptake in Blood,PC3-mice; 96 h p.i.,0.03±0 %I.A./g
same,Uptake in Bone,PC3-mice; 96 h p.i.,0.6±0.1 %I.A./g
same,Uptake in Gallbladder,PC3-mice; 96 h p.i.,0.1±0.02 %I.A./g
same,Uptake in Heart,PC3-mice; 96 h p.i.,0.2±0.02 %I.A./g
same,Uptake in Intestine,PC3-mice; 96 h p.i.,0.1±0.02 %I.A./g
same,Uptake in Kidney,PC3-mice; 96 h p.i.,0.4±0.04 %I.A./g
same,Uptake in Liver,PC3-mice; 96 h p.i.,1.3±0.1 %I.A./g
same,Uptake in Lung,PC3-mice; 96 h p.i.,0.1±0.02 %I.A./g
same,Uptake in Muscle,PC3-mice; 96 h p.i.,0.1±0.1 %I.A./g
same,Uptake in Pancreas,PC3-mice; 96 h p.i.,0.2±0.02 %I.A./g
same,Uptake in Salivary glands,PC3-mice; 96 h p.i.,0.7±0.1 %I.A./g
same,Uptake in Spleen,PC3-mice; 96 h p.i.,0.3±0.03 %I.A./g
same,Uptake in Stomach,PC3-mice; 96 h p.i.,0.1±0.01 %I.A./g
same,Uptake in Tumor,PC3-mice; 96 h p.i.,2.2±0.2 %I.A./g
same,Uptake in Adrenal,PC3-mice; [2],0.8±0.5 %I.A./g
same,Uptake in Blood,PC3-mice; [2],0.03±0.01 %I.A./g
same,Uptake in Bone,PC3-mice; [2],0.7±0.1 %I.A./g
same,Uptake in Gallbladder,PC3-mice; [2],0.2±0.2 %I.A./g
same,Uptake in Heart,PC3-mice; [2],0.2±0.04 %I.A./g
same,Uptake in Intestine,PC3-mice; [2],0.1±0.02 %I.A./g
same,Uptake in Kidney,PC3-mice; [2],0.5±0.1 %I.A./g
same,Uptake in Liver,PC3-mice; [2],1.2±0.5 %I.A./g
same,Uptake in Lung,PC3-mice; [2],0.1±0.04 %I.A./g
same,Uptake in Muscle,PC3-mice; [2],0.2±0.04 %I.A./g
same,Uptake in Pancreas,PC3-mice; [2],0.2±0.2 %I.A./g
same,Uptake in Salivary glands,PC3-mice; [2],0.6±0.2 %I.A./g
same,Uptake in Spleen,PC3-mice; [2],0.3±0.1 %I.A./g
same,Uptake in Stomach,PC3-mice; [2],0.09±0.02 %I.A./g
same,Uptake in Tumor,PC3-mice; [2],2.9±1.8 %I.A./g
same,tumor uptake,PC3-mice; at 1 h p.i. as printed,~ 15 %I.A./g
same,drop of tumor uptake (washed-out),PC3-mice; at 24 h vs 4 h p.i.,~ 50%
same,Blood half life (initial),[1],2.8 min
same,Blood half life (terminal),[1],4.692 h and 4.7 h
